The source made the active and inactive calls. No rule for the calls is given here.
Assay: growth inhibition of yeast carrying parasite Hsp90, dose response, anti-malarial Hsp90 inhibitor project, ATP luminescence, 48 h, cherry-picked samples (AID 540268);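 as to activity change, negative = inhibition: 0% = neutral control wells and -100% = positive control wells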
Conditions: yeast expressing the parasite Hsp90, ATP luminescence; for activity change, negative = inhibition: at 26 µM (top of the series)

Structure (SMILES)	AC50	activity change, negative = inhibition
CCCCCCCCNC(=O)/C(C#N)=C/c1ccccc1[N+](=O)[O-]	4.69 µM	
Cc1sc2ncnc(N/N=C/c3ccccc3O)c2c1C	4.4 µM	
CCCCCCC(=O)N(O)C1CC(=O)N(c2ccc(F)cc2)C1=O (centres undefined)	1.32 µM	
CCCC(=O)NC(c1cccs1)c1cc(Cl)c2cccnc2c1O (centres undefined)	1.58 µM	
COc1ccc(N2CCN(c3c(S(=O)(=O)c4ccccc4)cnc4ccc(OC)cc34)CC2)cc1	3.9 µM	
Nc1cccc(Oc2c(F)c(F)c(Oc3cccc(N)c3)c(F)c2F)c1	9.03 µM	
Cn1ncc2c(Nc3cccc(Cl)c3)nc(Nc3cccc(Cl)c3)nc21	2.82 µM	
O=C(/C(=C\c1ccccc1)c1nc2ccccc2[nH]1)c1ccc(Cl)cc1		-31.8% (inactive)
O=C1NC(=S)S/C1=C\c1cc2ccccc2nc1N1CCCCC1	8.4 µM	
CCCc1cc(NCc2ccccn2)n2nc(C)c(-c3ccccc3)c2n1	1.29 µM	
COc1cccc(/C=C/c2ccc3cccc(O)c3n2)c1	< 0.195 µM	
CC1=CC(=O)C(C(C)C)=C/C1=N/OS(=O)(=O)c1ccccc1	3.09 µM	
CCc1ccc(OCC(=O)NNC(=S)NC(=O)C2CC2)c(Br)c1	1.12 µM	
CC(CCc1ccccc1)NC(=O)c1ccc(Br)cc1 (centres undefined)	4.71 µM	
CC(=O)Nc1ccc(Nc2cc(C(C)C)nc3c(-c4ccccc4)c(C)nn23)cc1	3.68 µM	
COc1ccccc1NC(=O)COC(=O)c1ccc([N+](=O)[O-])s1	3.02 µM	
CC(C)OC(=O)c1ccc(NCc2cc(O)ccc2O)cc1	6.94 µM	
COC(=O)C1=C(C(=O)OC)C2OC1c1cc3ccccc3cc12	1.92 µM	
COc1ccccc1-c1sc2cc3c(cc2c1-c1ccc(O)cc1)OCO3	8.2 µM	
O=c1ccc(N=Nc2ccccc2)ccc1O	1.48 µM	
Clc1ccc(COC(Cn2ccnc2)c2ccc(Cl)cc2Cl)cc1 (centres undefined)	< 0.195 µM	

Structure (SMILES)	AC50	activity change, negative = inhibition
CCCOC(=O)c1ccc(Oc2cn[nH]c2-c2ccc(OCC)cc2O)cc1	< 0.195 µM	
COc1ccc(-c2nnc(SCC(=O)Oc3ccc(C)cc3)o2)cc1	2.02 µM	
N/C(Cc1ccc(Cl)cc1Cl)=N\OC(=O)c1ccc(Br)o1	4.14 µM	
Oc1ccc(-c2nc3ccc4ccccc4c3c3c2CCC3)cc1O	8.29 µM	
Cc1cc(C2CCCCC2)n(O)c(=O)c1	1.19 µM	
Cc1cc(/C=C2\SC(=S)NC2=O)c(C)n1-c1cccc(O)c1	8.7 µM	
Clc1ccc(N=c2ssnc2Cl)nc1	3.19 µM	
Cc1cc(N2CCN(C(=O)c3ccco3)CC2)n2nc(C)c(-c3ccccc3)c2n1	8.36 µM	
O=C1C2C3C=CC(C3)C2C(=O)N1CN(Cc1ccccc1)CN1C(=O)C2C3C=CC(C3)C2C1=O (centres undefined)	16.6 µM	
O=[N+]([O-])c1oc2ccc3ccccc3c2c1CCO	2.06 µM	
COc1cc(N=Nc2ccc3ccccc3c2)ccc1O	8.61 µM	
Cc1cc(C)cc(N=Cc2ccc([N+](=O)[O-])s2)c1	3.94 µM	
Cc1cccc(COC(=O)CCCNC(=O)c2ccc(Cl)cc2)c1	8.69 µM	
CCOC(=O)c1ccc(N2C(=O)CC(N3CCC(C(=O)OCC)CC3)C2=O)cc1 (centres undefined)	< 0.195 µM	
Cc1cc2n(n1)C(c1c[nH]c3ccccc13)Nc1ccccc1-2 (centres undefined)	2.67 µM	
O=[N+]([O-])c1cc(Br)c(Nc2ccccc2)c([N+](=O)[O-])c1	8.53 µM	
C(C#CCCCCCCCCC[n+]1ccccc1)#CCCCCCCCCC[n+]1ccccc1	4.06 µM	
O=C(/C=C/c1cccc([N+](=O)[O-])c1)c1ccc([N+](=O)[O-])o1	< 0.195 µM	
N/C(=N\OC(=O)c1ccc2ccccc2c1)c1ccccc1Cl	4.46 µM	
OC(CNCCC1C=Nc2ccccc21)Cn1c2ccc(Cl)cc2c2cc(Cl)ccc21 (centres undefined)	7.56 µM	
Cc1ccc(NC(=O)c2cc(N3C(=O)C=CC3=O)ccc2N2CCOCC2)cc1Cl	< 0.195 µM	

Structure (SMILES)	AC50	activity change, negative = inhibition
O=C(Oc1c(Cl)cc(Cl)c2cccnc12)c1cccs1	4.26 µM	
COc1cccc(/C=N/NC(=O)C(=O)Nc2ccccc2OC(F)(F)C(F)F)c1O	0.731 µM	
Clc1nssc1=Nc1ccc(Br)cc1	3.4 µM	
Cc1onc(-c2ccccc2)c1C(=O)NC(=S)NNC(=O)c1ccccc1O	2.24 µM	
CCCCCCCCCCCCCCCC[N+](C)(C)C	8.6 µM	
Oc1ccc(N=Nc2ccc3ccccc3c2)cc1	4.26 µM	
O=[N+]([O-])c1cc(Cc2ccccc2)cc(C=Nc2ccc(N3CCOCC3)cc2)c1O	3.46 µM	
CC1=C(C(=O)OCc2ccccc2)C(/C=C/c2ccccc2)NC(=S)N1 (centres undefined)	< 0.195 µM	
O=C1CC(N2CCCN(C3CC(=O)N(c4ccc(F)cc4)C3=O)CC2)C(=O)N1c1ccc(F)cc1 (centres undefined)	3.49 µM	
CN(C)CC1Oc2ccccc2OC1(O)c1ccccc1 (centres undefined)	2.98 µM	
O=C(O)c1cccc2c1Cc1cc([N+](=O)[O-])ccc1-2	0.808 µM	
CCCCC(=O)NC(c1ccccc1OC)c1ccc2cccnc2c1O (centres undefined)	4.45 µM	
Cc1ccc(/C=C2/NC(=O)N(Cc3ccc(Br)cc3)C2=O)o1		47.3% (inactive)
Oc1c(Br)cc(Br)c(/C=N/n2c(-c3ccccc3)n[nH]c2=S)c1Br	10.4 µM	
CC(C)=CCc1c2c(c3occ(-c4ccc(O)c(O)c4)c(=O)c3c1O)C=CC(C)(C)O2	8.75 µM	
Nc1cc2c(cc1[N+](=O)[O-])-c1ccccc1C2=NO	8.64 µM	
CC(C)c1c(O)ccc2c1CC[C@H]1C(C)(C)CCC[C@]21C	2.86 µM	
O=C(Nc1ccccc1)Oc1cccc2cccnc12	2.12 µM	
O=S(=O)(/C=C/c1ccccc1)NC1CCCCCCC1	1.18 µM	
CCOc1ccc(Br)cc1C1=NN(C(C)=O)C(c2ccc([N+](=O)[O-])s2)O1 (centres undefined)	8.12 µM	
Cc1nn2c(NCc3ccccn3)cc(C(C)(C)C)nc2c1-c1ccccc1	3.02 µM	

Structure (SMILES)	AC50	activity change, negative = inhibition
COC(=O)c1ccc(NC(=O)c2cn(-c3ccccc3)nc2-c2ccncc2)cc1	4.08 µM	
O=C(Nc1ccc(Cl)cc1Cl)c1cccc(N2C(=O)C=CC2=O)c1	< 0.195 µM	
O=C1C=CC(=O)N1c1ccc(O)cc1	1.44 µM	
Cc1[nH]n(-c2ccc([N+](=O)[O-])cc2)c(=O)c1C=NCCN1CCN(C(=O)c2cccc(F)c2)CC1	5.83 µM	
CCOC(=O)N=Nc1c2ccccc2c2nc3no[nH]c3nc12	0.769 µM	
COc1ccccc1OCCNC(=O)c1ccc(Br)cc1	< 0.195 µM	
Cc1ccc(NN2C(=O)C=C(c3ccc(Cl)cc3)C2=O)cc1	< 0.195 µM	
Cn1c(SCC(=O)N/N=C/c2ccc([N+](=O)[O-])s2)nnc1-c1ccc(Cl)cc1	2.3 µM	
Cc1cccc(C)c1N=Nc1c(C)cc(O)cc1C	8.29 µM	
O=C1C=CC(=O)N1c1ccc(OC(F)F)cc1	0.421 µM	
O=C1OC(c2ccccc2)(c2ccc3cc(O)ccc3c2)c2ccccc21 (centres undefined)	9.13 µM	
Cc1ccc2nc(-c3ccc(NS(=O)(=O)c4ccc(F)cc4)cc3)sc2c1		144% (inactive)
CC1CCCCC1NC(=O)/C(C#N)=C/c1ccccc1F (centres undefined)	0.87 µM	
COc1ccc(C(C#N)=C2C=CC(=NO)C=C2)cc1	4.56 µM	
O=[N+]([O-])c1ccc(C=Nc2ccc(Cl)cc2Cl)s1	8.6 µM	
N/C(Cc1ccc(Cl)cc1)=N\OC(=O)c1cccc2ccccc12	2.19 µM	
CCN(CCO)C1CC(=O)N(c2ccccc2C)C1=O (centres undefined)	1.26 µM	
O=C(/C=C/c1cc(Br)ccc1O)c1ccco1	5.35 µM	
OC(Cn1cncn1)(c1ccc(F)cc1)c1ccc(Cl)cc1 (centres undefined)	< 0.195 µM	
O=S(=O)(/C=C/c1ccccc1)NC1CCCCCC1	4.16 µM	
CCCCCC(=O)N(O)C1CC(=O)N(c2ccccc2)C1=O (centres undefined)	1.13 µM	
